According to PubChem BioAssay AID1963437 (Molecular Pharmacology Branch, DTP, NCI, 2024):

Tested on: OVCAR-8 complex spheroid, growth inhibition
Test: Anticancer human tumor OVCAR-8 cell line growth inhibition [Asc];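 further: spheroids exposed to agents for 7 days before readout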;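 on viability, T/C: percent viability relative to DMSO vehicle wells taken as 100%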
Conditions: for IC50: curve of first compound; for viability, T/C: stronger effect = lower value
How it was run: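 Complex solid-tumor spheroids incorporating human endothelial and mesenchymal stem cells received single agents or combinations over half-log dilution ranges anchored to clinical Cmax.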

[1] = second compound 0.00949 µM, first compound 0.0316 µM
[2] = second compound 0.00949 µM, first compound 0.1 µM
[3] = second compound 0.00949 µM, first compound 0.316 µM
[4] = second compound 0.00949 µM, first compound 1 µM
[5] = second compound 0.00949 µM, first compound 3.16 µM
[6] = second compound 0.00949 µM, first compound 10 µM
[7] = second compound 0.03 µM, first compound 0.0316 µM
[8] = second compound 0.03 µM, first compound 0.1 µM
[9] = second compound 0.03 µM, first compound 0.316 µM
[10] = second compound 0.03 µM, first compound 1 µM
[11] = second compound 0.03 µM, first compound 3.16 µM
[12] = second compound 0.03 µM, first compound 10 µM
[13] = second compound 0.0949 µM, first compound 0.0316 µM
[14] = second compound 0.0949 µM, first compound 0.1 µM
[15] = second compound 0.0949 µM, first compound 0.316 µM
[16] = second compound 0.0949 µM, first compound 1 µM
[17] = second compound 0.0949 µM, first compound 3.16 µM
[18] = second compound 0.0949 µM, first compound 10 µM
[19] = second compound 0.3 µM, first compound 0.0316 µM
[20] = second compound 0.3 µM, first compound 0.1 µM
[21] = second compound 0.3 µM, first compound 0.316 µM
[22] = second compound 0.3 µM, first compound 1 µM
[23] = second compound 0.3 µM, first compound 3.16 µM
[24] = second compound 0.3 µM, first compound 10 µM
[25] = second compound 0.949 µM, first compound 0.0316 µM
[26] = second compound 0.949 µM, first compound 0.1 µM
[27] = second compound 0.949 µM, first compound 0.316 µM
[28] = second compound 0.949 µM, first compound 1 µM
[29] = second compound 0.949 µM, first compound 3.16 µM
[30] = second compound 0.949 µM, first compound 10 µM
[31] = second compound 3 µM, first compound 0.0316 µM
[32] = second compound 3 µM, first compound 0.1 µM
[33] = second compound 3 µM, first compound 0.316 µM
[34] = second compound 3 µM, first compound 1 µM
[35] = second compound 3 µM, first compound 3.16 µM
[36] = second compound 3 µM, first compound 10 µM

Compound `C#Cc1c(F)ccc2cc(O)cc(-c3ncc4c(N5CC6CCC(C5)N6)nc(OCC56CCCN5CC(F)C6)nc4c3F)c12` (stereo not drawn) + CCN1C(C(=O)NC23CCC(C(=O)O)(CC2)CC3)C(c2cccc(Cl)c2F)C2(C(=O)Nc3cc(Cl)ccc32)C12CCCCC2 has an IC50 (second compound 0.00949 µM) of over 10000 nM, an IC50 (second compound 0.03 µM) of over 10000 nM and an IC50 (second compound 0.0949 µM) of over 10000 nM. For the same compound, the IC50 (second compound 0.3 µM) was over 10000 nM, the IC50 (second compound 0.949 µM) was over 10000 nM and the IC50 (second compound 3 µM) was over 10000 nM. It also gave a viability, T/C [1] of 91.7%, a viability, T/C [2] of 86.9% and a viability, T/C [3] of 93.3%. The viability, T/C [4] was 95.2%, the viability, T/C [5] was 95.5% and the viability, T/C [6] was 89.3%. It also gave a viability, T/C [7] of 114%, a viability, T/C [8] of 96.3% and a viability, T/C [9] of 85.1%. For the same compound, the viability, T/C [10] was 97.3%, the viability, T/C [11] was 90.1% and the viability, T/C [12] was 91.5%. For the same compound, the viability, T/C [13] was 93.2%, the viability, T/C [14] was 82.2% and the viability, T/C [15] was 94.4%. For the same compound, the viability, T/C [16] was 84%, the viability, T/C [17] was 101% and the viability, T/C [18] was 101%. It also gave a viability, T/C [19] of 79.5%, a viability, T/C [20] of 86.8% and a viability, T/C [21] of 84.2%. It also gave a viability, T/C [22] of 91.7%, a viability, T/C [23] of 96.5% and a viability, T/C [24] of 98.2%. For the same compound, the viability, T/C [25] was 93.5%, the viability, T/C [26] was 107% and the viability, T/C [27] was 90.8%. It also gave a viability, T/C [28] of 92.3%, a viability, T/C [29] of 103% and a viability, T/C [30] of 107%. It also gave a viability, T/C [31] of 108%, a viability, T/C [32] of 93% and a viability, T/C [33] of 105%. For the same compound, the viability, T/C [34] was 115%, the viability, T/C [35] was 110% and the viability, T/C [36] was 112%.
Work on `C=C(F)C(=O)N1CCN(c2nc(OCC3CCCN3C)nc3c2CCN(c2cccc4cccc(Cl)c24)C3)CC1CC#N` (stereo not drawn) + CCN1C(C(=O)NC23CCC(C(=O)O)(CC2)CC3)C(c2cccc(Cl)c2F)C2(C(=O)Nc3cc(Cl)ccc32)C12CCCCC2 yielded an IC50 (second compound 0.00949 µM) of 2580 nM, an IC50 (second compound 0.03 µM) of 2500 nM and an IC50 (second compound 0.0949 µM) of 2720 nM. The IC50 (second compound 0.3 µM) was 2660 nM, the IC50 (second compound 0.949 µM) was 2490 nM and the IC50 (second compound 3 µM) was 2740 nM. It also gave a viability, T/C [1] of 115%, a viability, T/C [2] of 86.5% and a viability, T/C [3] of 103%. The viability, T/C [4] was 119%, the viability, T/C [5] was 38% and the viability, T/C [6] was 1.01%. It also gave a viability, T/C [7] of 96.6%, a viability, T/C [8] of 90.2% and a viability, T/C [9] of 92.3%. For the same compound, the viability, T/C [10] was 107%, the viability, T/C [11] was 38% and the viability, T/C [12] was 0.56%. The viability, T/C [13] was 93.1%, the viability, T/C [14] was 98.6% and the viability, T/C [15] was 93.9%. For the same compound, the viability, T/C [16] was 116%, the viability, T/C [17] was 42.3% and the viability, T/C [18] was 0.29%. For the same compound, the viability, T/C [19] was 83.8%, the viability, T/C [20] was 103% and the viability, T/C [21] was 105%. It also gave a viability, T/C [22] of 121%, a viability, T/C [23] of 40.6% and a viability, T/C [24] of 0.7%. The viability, T/C [25] was 90.3%, the viability, T/C [26] was 96.8% and the viability, T/C [27] was 102%. The viability, T/C [28] was 126%, the viability, T/C [29] was 35.9% and the viability, T/C [30] was 1.05%. The viability, T/C [31] was 111%, the viability, T/C [32] was 97.3% and the viability, T/C [33] was 140%. The viability, T/C [34] was 128%, the viability, T/C [35] was 40.3% and the viability, T/C [36] was 0.52%.
In the case of `C=CC(=O)N1CCN(c2nc(=O)n(-c3c(C)ccnc3C(C)C)c3nc(-c4c(O)cccc4F)c(F)cc23)C(C)C1` (stereo not drawn) + CCN1C(C(=O)NC23CCC(C(=O)O)(CC2)CC3)C(c2cccc(Cl)c2F)C2(C(=O)Nc3cc(Cl)ccc32)C12CCCCC2, the IC50 (second compound 0.00949 µM) is reported as over 10000 nM, the IC50 (second compound 0.03 µM) is reported as over 10000 nM and the IC50 (second compound 0.0949 µM) is reported as over 10000 nM. The IC50 (second compound 0.3 µM) was over 10000 nM, the IC50 (second compound 0.949 µM) was over 10000 nM and the IC50 (second compound 3 µM) was over 10000 nM. For the same compound, the viability, T/C [1] was 94.2%, the viability, T/C [2] was 89.9% and the viability, T/C [3] was 94.7%. For the same compound, the viability, T/C [4] was 81.7%, the viability, T/C [5] was 89.3% and the viability, T/C [6] was 100%. The viability, T/C [7] was 101%, the viability, T/C [8] was 90.6% and the viability, T/C [9] was 85.3%. It also gave a viability, T/C [10] of 76.8%, a viability, T/C [11] of 102% and a viability, T/C [12] of 102%. It also gave a viability, T/C [13] of 101%, a viability, T/C [14] of 78.6% and a viability, T/C [15] of 88%. The viability, T/C [16] was 74.2%, the viability, T/C [17] was 86.1% and the viability, T/C [18] was 116%. It also gave a viability, T/C [19] of 88%, a viability, T/C [20] of 96.7% and a viability, T/C [21] of 86.3%. It also gave a viability, T/C [22] of 93.7%, a viability, T/C [23] of 88.2% and a viability, T/C [24] of 106%. It also gave a viability, T/C [25] of 87.3%, a viability, T/C [26] of 103% and a viability, T/C [27] of 102%. It also gave a viability, T/C [28] of 90.8%, a viability, T/C [29] of 104% and a viability, T/C [30] of 115%. It also gave a viability, T/C [31] of 124%, a viability, T/C [32] of 103% and a viability, T/C [33] of 101%. It also gave a viability, T/C [34] of 106%, a viability, T/C [35] of 120% and a viability, T/C [36] of 137%.
In the case of `CNC(C)C(=O)NC1CN(S(=O)(=O)c2cccc(S(=O)(=O)N3CCC4CCC(C(=O)NC(c5ccccc5)c5ccccc5)N4C(=O)C(NC(=O)C(C)NC)C3)c2)CCC2CCC(C(=O)NC(c3ccccc3)c3ccccc3)N2C1=O` (stereo not drawn) + CCN1C(C(=O)NC23CCC(C(=O)O)(CC2)CC3)C(c2cccc(Cl)c2F)C2(C(=O)Nc3cc(Cl)ccc32)C12CCCCC2, the IC50 (second compound 0.00949 µM) is reported as over 1000 nM, the IC50 (second compound 0.03 µM) is reported as over 1000 nM and the IC50 (second compound 0.0949 µM) is reported as over 1000 nM. The IC50 (second compound 0.3 µM) was over 1000 nM, the IC50 (second compound 0.949 µM) was over 1000 nM and the IC50 (second compound 3 µM) was over 1000 nM. For the same compound, the viability, T/C (second compound 0.00949 µM, first compound 0.00316 µM) was 100%, the viability, T/C (second compound 0.00949 µM, first compound 0.01 µM) was 83.8% and the viability, T/C [1] was 91.8%. For the same compound, the viability, T/C [2] was 76.4%, the viability, T/C [3] was 75.4% and the viability, T/C [4] was 71.3%. The viability, T/C (second compound 0.03 µM, first compound 0.00316 µM) was 107%, the viability, T/C (second compound 0.03 µM, first compound 0.01 µM) was 99.3% and the viability, T/C [7] was 94%. The viability, T/C [8] was 88.8%, the viability, T/C [9] was 75% and the viability, T/C [10] was 83.3%. The viability, T/C (second compound 0.0949 µM, first compound 0.00316 µM) was 94.7%, the viability, T/C (second compound 0.0949 µM, first compound 0.01 µM) was 98.1% and the viability, T/C [13] was 90.9%. It also gave a viability, T/C [14] of 79%, a viability, T/C [15] of 74.4% and a viability, T/C [16] of 63.6%. The viability, T/C (second compound 0.3 µM, first compound 0.00316 µM) was 112%, the viability, T/C (second compound 0.3 µM, first compound 0.01 µM) was 101% and the viability, T/C [19] was 86.7%. The viability, T/C [20] was 65.9%, the viability, T/C [21] was 68.6% and the viability, T/C [22] was 70.1%. For the same compound, the viability, T/C (second compound 0.949 µM, first compound 0.00316 µM) was 91.7%, the viability, T/C (second compound 0.949 µM, first compound 0.01 µM) was 89.1% and the viability, T/C [25] was 99%. For the same compound, the viability, T/C [26] was 76.7%, the viability, T/C [27] was 64.3% and the viability, T/C [28] was 66.8%. For the same compound, the viability, T/C (second compound 3 µM, first compound 0.00316 µM) was 118%, the viability, T/C (second compound 3 µM, first compound 0.01 µM) was 102% and the viability, T/C [31] was 115%. The viability, T/C [32] was 88%, the viability, T/C [33] was 84.5% and the viability, T/C [34] was 88%.
